Results: patent publication US7851573B2, “Aqueous polytetrafluoroethylene emulsion, polytetrafluoroethylene fine powder and porous material obtained therefrom” (Asahi Glass Company, Limited, priority 2005, dated 2010)

How the values were obtained:
[1] = 1-octanol/water partition coefficient (LogPOW) by HPLC, OECD Test Guideline 117; type: physicochemical; conditions: for LogPOW: HPLC method, ODS column, acetonitrile/0.6 mass % HClO4 aq. 1/1, 40° C., calibration with C7-C10 carboxylic acids; for bioaccumulation potential / accumulation in a living organism: judged from the LogPOW value compared to APFO
Procedure: In accordance with OECD Test Guideline 117, 1-octanol/water partition coefficient (LogPOW) of a fluorinated emulsifier was measured by using HPLC (high performance liquid chromatography).
Conditions for the measurement were as follows: column: TOSOH ODS-120T column ((φ 4.6 mm×250 mm), eluent: acetonitrile/0.6 mass % of HClO4 aqueous solution=1/1 (vol/vol %), flow rate: 1.0 mL/minute, sample amount: 300 μL, column temperature: 40° C., and detection light: UV 210 nm (WO2005-42593).
HPLC was carried out on standard substances (heptanoic acid, octanoic acid, nonanoic acid and decanoic acid) having known 1-octanol/water partition coefficients, and a calibration curve was prepared from the respective elution times and octanol/water partition coefficients of the respective standard substances. Based on this calibration curve, a value of partition coefficient (LogPOW) between 1-octanol and water was calculated from the elution time by HPLC of the fluorinated emulsifier.
Further, in general, in order to judge whether or not a chemical substance is apt to be accumulated in a living organism, a testing method for measurement of a partition coefficient (LogPOW) between 1-octanol and water, is stipulated. As the testing method, in addition to “Partition Coefficient (1-octanol/water) Shake Flask Method” as stipulated in OECD test guideline 107 and in Japanese Industrial Standards Z 7260-107 (2000), a HPLC method (high-performance liquid chromatography) as stipulated and published in OECD Test Guideline 117, is used. A compound having a large partition coefficient value has a large tendency for bioaccumulation, and a compound having a small value means a small tendency for bioaccumulation. In a case where the LogPOW value is less than 3.5, it is considered proper to judge that it is not a high-concentration, and bioaccumulation is also considered to be small.

[2] = background art statement, no method given; cited from earlier work

Row | SMILES | LogPOW [1] | bioaccumulation potential [2] | bioaccumulation potential / accumulation in a living organism [1]
1 | N.O=C(O)C(F)(F)C(F)(F)C(F)(F)C(F)(F)C(F)(F)C(F)(F)C(F)(F)F [CF3(CF2)6COONH4, ammonium perfluorooctanoate] | 3.67 | high | 
2 | N.O=C(O)C(F)(OC(F)(F)C(C(F)(F)F)C(F)(F)C(F)(F)C(F)(F)F)C(F)(F)F (stereo not shown) [CF3CF2CF2C(CF3)CF2OCF(CF3)COONH4] |  | higher bioaccumulation potential than APFO | 
3 | N.O=C(O)C(F)(F)OC(F)(F)C(F)(F)OC(F)(F)C(F)(F)F [CF3CF2OCF2CF2OCF2COONH4] | 3.13 |  | low
4 | N.O=C(O)C(F)(OC(F)(F)C(F)(OC(F)(F)C(F)(F)F)C(F)(F)F)C(F)(F)F (stereo not shown) [CF3CF2OCF(CF3)CF2OCF(CF3)COONH4] | 4.03 |  | high
